Test results reported in article PMC10649274 (International Journal of Molecular Sciences, 2023).
“Also recorded” adds a separate entry of the source. Read-outs that look alike come from different tables or passages of the source.

How the values were obtained:
native NMDA receptors [1] = assay: Whole-cell patch clamp of NMDA plus glycine induced currents in isolated CA1 pyramidal neurons; format: cell-based, rat
Procedure: The rats were anesthetised with sevoflurane and then decapitated. The brains were brought out quickly and cooled to 2–4 °C. […] All experiments were performed at room temperature.
Vibrodissociation method was used to free CA1 pyramidal neurons from slices. This method allows for isolating cells without enzymatic treatment and keeping them in more native state. Pyramidal cells were isolated from the stratum pyramidale and distinguished from non-pyramidal cells on the basis of pyramidal-like somata and preserved apical dendrites.
To record membrane currents in response to applications of NMDA and glycine, the whole-cell configuration of patch clamp technique was used. Series resistance (<20 MΩ) was compensated by 70–80% and monitored during experiments. Only cells with stable holding currents were used in further analysis. The current signals were amplified using EPC-8 (HEKA Electronics, Lambrecht, Germany), filtered at 5 kHz, sampled, and stored on a personal computer. RSC-200 (BioLogic Science Instruments, Claix, France) perfusion system was used to apply the drugs under computer control. […] The pipettes with resistance of 2–5 MΩ were filled with the following solution (in mM): CsF 100, CsCl 40, NaCl 5, CaCl2 0.5, EGTA 5, HEPES 10 (pH adjusted to 7.2 with CsOH). […] Other reagents were purchased from MedChemExpress (Monmouth Junction, NJ, USA), Sigma (St. Louis, MO, USA), or Tocris Bioscience (Bristol, UK).
NMDA receptors were activated with 100 µM NMDA plus 10 µM glycine unless otherwise stated. […] Kinetics of transient processes of more than 20 ms duration were approximated with single or double exponential functions. In case of double exponential fitting, the weighted time constant was used.

native NMDA receptors [2] = assay: Analysis of voltage dependence of NMDA receptor block (Woodhull model with voltage-independent component, Equation (2)); format: cell-based, rat
Procedure: NMDA receptors were activated with 100 µM NMDA plus 10 µM glycine unless otherwise stated. The percentages of blocking of the steady-state or peak currents by different drug concentrations were measured at −80, −30 or +30 mV holding voltages. Kinetics of transient processes of more than 20 ms duration were approximated with single or double exponential functions. In case of double exponential fitting, the weighted time constant was used.
The voltage dependence of compounds’ action was analyzed with the classical Woodhull model with the addition of a voltage-independent component. […] Kb is the affinity of a drug for the channel, and δ is the electrical depth of the binding site. The δ value reflects the fraction of membrane electric field that the charged blocking molecule crosses on its pathway between the external media and the binding site in the channel.
Thus, we deduced Equation (2), taking it into account and assuming that the binding to the deep and shallow site is independent:(2) B=100−100/(1+C/(Kvd∗exp〖Fzδ/RTV〗)+C/Kvi+(C∗C)/((Kvd∗exp〖Fzδ/RTV〗∗Kvi))
In this equation, Kvd is the affinity of the drug to the deep site, Kvi—the affinity of the drug to the shallow site, and other parameters are the same as in Equation (1).
All experimental data are presented as the mean ± SD estimated from at least four experiments (cells). Significance of the effects was tested with t-tests. Differences were considered significant at p < 0.05. Concentration dependencies were approximated with Hill equation. Voltage dependencies were approximated with Equation (2). […] Approximation error values were taken as the precision measures.

[3] = target: GLUN2B-containing NMDA receptor; conditions: fractionated rat brain membranes; read-out: IC50 of [3H]ifenprodil binding inhibition; cited from earlier work
[4] = system: rat retinal excitotoxicity model; conditions: cited from earlier work
[5] = system: animal pancreatitis models; conditions: cited from earlier work
native NMDA receptors [6] = conditions: cited from earlier work
native NMDA receptors [7] = conditions: cited from earlier work; remark: listed apart in the source
[8] = Equation (2) with fixed zδ (0.55 mono-, 1.1 dicationic), reanalysis of earlier data [16],[17], read-out: Kvd, fixed zδ (converted)
[9] = Equation (2) with fixed zδ (0.55 mono-, 1.1 dicationic), reanalysis of earlier data [16],[17], read-out: Kvi, fixed zδ (converted)
[10] = −80 mV holding voltage, native NMDA receptors, earlier papers of the authors, read-out: IC50, −80 mV

Compound: N=C(N)c1ccc2cc(OC(=O)c3ccc(NC4=NCCN4)cc3)ccc2c1 [Sepimostat]
- nature of voltage-independent component of inhibition (native NMDA receptors [1]): agonist-dependent but non-competitive
- % block (native NMDA receptors [1]; 5 µM, 3 mM NMDA, +30 mV, n = 4): 25 ± 4%
- % block (native NMDA receptors [1]; 5 µM, 3 mM NMDA, −30 mV, n = 10): 20 ± 5%
- inhibition at high NMDA concentrations (native NMDA receptors [1]; 5 µM, 1000 and 3000 µM NMDA, −80 mV): about 50%
- % block (native NMDA receptors [1]; 5 µM, +30 mV, representative trace, Figure 2A): 47%
- % block (native NMDA receptors [1]; 5 µM, −30 mV, NMDA 30 µM, Figure 5A): 78%
- % block (native NMDA receptors [1]; 5 µM, −30 mV, NMDA 1 mM, Figure 5A): 26%
- % block (native NMDA receptors [1]; 5 µM, −30 mV, representative trace, Figure 2A): 49%
- % block (native NMDA receptors [1]; 5 µM, −80 mV, NMDA 30 µM, Figure 5A): 78%
- % block (native NMDA receptors [1]; 5 µM, −80 mV, NMDA 1 mM, Figure 5A): 44%
- % block (native NMDA receptors [1]; 5 µM, −80 mV, representative trace, Figure 2A): 57%
- % block (native NMDA receptors [1]; 5 µM, −120 mV, representative trace, Figure 2A): 72%
- plateau/peak ratio in the presence of blocker (native NMDA receptors [1]; 10 µM, −80 mV, control 0.6 ± 0.1, n = 4): 1.1 ± 0.3
- normalized plateau/peak ratio ((IBS/IB0)/(ICS/IC0)) (native NMDA receptors [1]; 10 µM, −80 mV, n = 4): 1.8 ± 0.1
- trapping in double-pulse protocol (native NMDA receptors [1]; 30 µM, n = 5): no signs of trapping
- τfall of overshoot (native NMDA receptors [1]; 30 µM, overshoot falling phase, n = 4): 770 ± 140 ms
- τrise of overshoot (native NMDA receptors [1]; 30 µM, overshoot rising phase, n = 4): 62 ± 15 ms
- amplitude of overshoot relative to steady-state control response (native NMDA receptors [1]; 30 µM, washout in the presence of agonists, n = 4): 1.8 ± 0.3
- % block (native NMDA receptors [1]; 30 µM, −80 mV): > 90%
- amplitude of tail currents relative to steady-state control response (native NMDA receptors [1]; 30 µM, −80 mV, washout in the absence of agonists, n = 6): 1.3 ± 0.5
- IC50 (native NMDA receptors [1]; +30 mV holding voltage, steady-state, read-out: IC50, steady-state component): 5.8 ± 1.5 µM
- change of inhibition with increase of NMDA concentration (native NMDA receptors [1]; −30 mV): attenuated
- competition with Mg2+ for binding site in channel pore (native NMDA receptors [1]; −30 mV, 1 mM Mg2+): does not compete
- IC50 (native NMDA receptors [1]; −30 mV, 1 mM Mg2+, n = 7, read-out: IC50 in the presence of magnesium): 3.6 ± 1.1 µM
- IC50 (native NMDA receptors [1]; −30 mV, no Mg2+, n = 5, read-out: IC50 in the absence of magnesium): 3.6 ± 1 µM
- change of inhibition with increase of NMDA concentration from 30 to 1000 µM (native NMDA receptors [1]; −80 mV): significantly decreased
- type of channel block (interaction with channel gate) (native NMDA receptors [1]; −80 mV): foot-in-the-door
- IC50 (native NMDA receptors [1]; −80 mV holding voltage, NMDA 100 µM + glycine 10 µM, steady-state (plateau) current, read-out: IC50, steady-state component): 3.5 ± 0.3 µM
- IC50 (native NMDA receptors [1]; −80 mV, NMDA 100 µM + glycine 10 µM, peak current, read-out: IC50, peak component): 1.8 ± 0.4 µM
- voltage dependence of NMDA receptor inhibition (native NMDA receptors [2]; 5 µM): mostly voltage-independent with a small voltage-dependent component
- Kd (native NMDA receptors [2]; Equation (2) fit, zδ free, steady-state, read-out: Kvd, constant for voltage-dependent binding (deep site)): ~130 µM
- Kd (native NMDA receptors [2]; Equation (2) fit, zδ free, steady-state, read-out: Kvi, constant for voltage-independent binding (shallow site)): 7 ± 1 µM
- Kd (native NMDA receptors [2]; Equation (2) with fixed zδ 0.55 (monocation), read-out: Kvd, fixed zδ (converted)): 102 µM
- Kd (native NMDA receptors [2]; Equation (2) with fixed zδ 0.55 (monocation), read-out: Kvi, fixed zδ (converted)): 7 ± 1 µM
- IC50 [3]: 29.8 µM
- retinal protection [4]: retinoprotective properties
- activity in animal pancreatitis models [5]: significant activity

Compound: CC12CC3CC(C)(C1)CC(N)(C3)C2 [Memantine]
- IC50 (native NMDA receptors [6]; −30 mV, 1 mM Mg2+, read-out: IC50 in the presence of magnesium): 6.4 ± 0.5 µM

Compound: N=C(N)c1ccc(OCCCCCOc2ccc(C(=N)N)cc2)cc1 [Pentamidine]
- change of inhibition with increase of NMDA concentration from 30 to 1000 µM (native NMDA receptors [1]; holding voltage not stated): not attenuated significantly
- Kd (native NMDA receptors [2]; Equation (2) fit, zδ free, reanalysis of the authors' earlier voltage dependence data [16],[17], read-out: Kvd): 60 ± 25 µM
- Kd (native NMDA receptors [2]; Equation (2) fit, zδ free, reanalysis of the authors' earlier voltage dependence data [16],[17], read-out: Kvi): 8 ± 1 µM
- Kd (native NMDA receptors [2]; [8]): 27 µM
- Kd (native NMDA receptors [2]; [9]): 10 µM
- IC50 (NMDA receptor antagonism) (native NMDA receptors [6]): submicromolar range
- type of channel block (interaction with channel gate) (native NMDA receptors [6]): partial trapping
- IC50 (native NMDA receptors [6]; [10]): 0.41 ± 0.08 µM
- voltage dependence of NMDA receptor inhibition (native NMDA receptors [7]): strongly voltage-dependent

Compound: N=C(N)c1ccc(-c2cc3ccc(C(=N)N)cc3[nH]2)cc1 [DAPI]
- change of inhibition with increase of NMDA concentration (native NMDA receptors [1]; −30 mV): agonist-dependent
- inhibition at 1 mM NMDA (native NMDA receptors [1]; −30 mV, 1 mM NMDA): remained significant
- change of inhibition with increase of NMDA concentration from 30 to 1000 µM (native NMDA receptors [1]; −80 mV): agonist-dependent
- Kd (native NMDA receptors [2]; [8]): 5000 µM
- Kd (native NMDA receptors [2]; [9]): 3.16 µM
- Kd (native NMDA receptors [2]; fit with consensus zδ, read-out: binding constant for the deep site (Kvd)): > 1000 µM
- type of channel block (interaction with channel gate) (native NMDA receptors [6]): foot-in-the-door
- IC50 (native NMDA receptors [6]; [10]): 3.1 ± 0.6 µM
- voltage dependence of NMDA receptor inhibition (native NMDA receptors [7]): Completely voltage-independent

Compound: CN(C)C(=O)COC(=O)Cc1ccc(OC(=O)c2ccc(NC(=N)N)cc2)cc1 [Camostat]
- inhibition of native NMDA receptors (native NMDA receptors [6]): low activity; also recorded: practically ineffective
- IC50 (native NMDA receptors [6]; [10]): > 100 µM
- retinal protection [4]: did not demonstrate retinal protection activities

Compound: NC(CCCP(=O)(O)O)C(=O)O [D-AP5]
- inhibition at high NMDA concentrations (native NMDA receptors [1]; 5 µM, high NMDA concentrations): became weak, decaying to zero
